What all share (assay type): biochemical
Test [1] deals with T1, Vibrio alkaline phosphatase (VAP) (Vibrio sp. G15-21, UniProt Q93P54, K441L).
T1 sequence (Q93P54 20-521 K441L): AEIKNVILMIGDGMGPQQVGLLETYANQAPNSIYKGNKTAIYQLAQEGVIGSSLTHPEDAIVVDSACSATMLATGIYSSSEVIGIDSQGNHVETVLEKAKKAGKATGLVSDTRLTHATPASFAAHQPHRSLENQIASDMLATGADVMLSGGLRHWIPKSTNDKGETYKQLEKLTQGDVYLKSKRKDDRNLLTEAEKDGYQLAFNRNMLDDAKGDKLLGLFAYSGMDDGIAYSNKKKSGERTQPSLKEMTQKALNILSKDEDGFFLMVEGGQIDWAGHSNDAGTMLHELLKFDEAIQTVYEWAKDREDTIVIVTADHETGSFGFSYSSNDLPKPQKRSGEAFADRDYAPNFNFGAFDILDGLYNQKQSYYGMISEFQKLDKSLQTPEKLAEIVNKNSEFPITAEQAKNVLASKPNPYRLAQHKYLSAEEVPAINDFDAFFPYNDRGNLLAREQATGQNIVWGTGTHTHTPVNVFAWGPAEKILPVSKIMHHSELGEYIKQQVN
The test is described as follows: steady-state pNPP hydrolysis at […] nm, Michaelis-Menten fit. The note with it: pH 8.0, 100 mM Tris-HCl, 1 mM MgCl2, 10 °C, no added NaCl.

For test [2], the target named is T2, Vibrio alkaline phosphatase (VAP) (Vibrio sp. G15-21, UniProt Q93P54, K441L/Y442F).
T2 sequence (Q93P54 20-521 K441L/Y442F): T1 sequence (Q93P54 20-521 K441L)
The test is described as above. The note with it: pH 8.0, 100 mM Tris-HCl, 1 mM MgCl2, 10 °C, no added NaCl.

Test [3] addresses T3, Vibrio alkaline phosphatase (VAP) (Vibrio sp. G15-21, UniProt Q93P54, A240D).
T3 sequence (Q93P54 20-521 A240D): T1 sequence (Q93P54 20-521 K441L)
The test is described as above. The note with it: pH 8.0, 100 mM Tris-HCl, 1 mM MgCl2, 10 °C, no added NaCl.

The target of test [4] is T4, Vibrio alkaline phosphatase (VAP) (Vibrio sp. G15-21, UniProt Q93P54, K441E).
T4 sequence (Q93P54 20-521 K441E): T1 sequence (Q93P54 20-521 K441L)
The description is as above. The note with it: pH 8.0, 100 mM Tris-HCl, 1 mM MgCl2, 10 °C, no added NaCl.

Test [5] addresses T5, Vibrio alkaline phosphatase (VAP) (Vibrio sp. G15-21, UniProt Q93P54, Y241P).
T5 sequence (Q93P54 20-521 Y241P): T1 sequence (Q93P54 20-521 K441L)
The description is as above. The note with it: pH 8.0, 100 mM Tris-HCl, 1 mM MgCl2, 10 °C, no added NaCl.

Test [6] deals with T6, Vibrio alkaline phosphatase (VAP) (Vibrio sp. G15-21, UniProt Q93P54).
T6 sequence (Q93P54 20-521): T1 sequence (Q93P54 20-521 K441L)
The test is described as follows: steady-state pNPP hydrolysis at […] nm, […] HEPES.

On to `O=[N+]([O-])c1ccc(OP(=O)(O)O)cc1` [pNPP], for which the Km in test [1] stood at 6.6 ± 3.1 µM; in test [2], 8.8 ± 2.4 µM; in test [3] it was 12.8 ± 3.8 µM; in test [4] it was 7 ± 1.6 µM; in test [5], 4.9 ± 3.4 µM.
With `O=S(=O)(O)CCN1CCN(CCO)CC1` [HEPES], in test [6], the Ki worked out at 21.3 mM.
